Measurements published in patent US7429599B2, “Methods for treating or preventing an inflammatory or metabolic condition or inhibiting JNK” (Signal Pharmaceuticals, LLC, priority 2000, dated 2008).

Target: T1, His6-JNK2 (Homo sapiens, UniProt P45984)
T1 construct: His6 (N)
Assay: JNK2 Assay (c-Jun phosphorylation, 32P-ATP filter plate)
Format: biochemical
Settings: c-Jun phosphorylation reduced to 50% of control; GST-c-Jun(1-79), 11 μM ATP; read-out: IC50 value in the JNK2 Assay
Description: To 10 μL of the test compound in 20%/DMSO/80% dilutien buffer consisting of 20 mM HELPS (pH 7.6), 0.1 mM; EDTA, 2.5 mM magnesium chloride, 0.004% Triton×100, 2 μg/mL leupeptin, 20 mM β-glycerolphosphate, 0.1 mM sodium vanadate, and 2 mM DTT in water is added 30 μL of 50 ng His6-JNK2 in the same dilution buffer. The mixture is preincubated for 30 minutes at room temperature. Sixty microliter of 10 μg GST-c-Jun(1-79) in assay buffer consisting of 20 mM HEPES (pH 7.6), 50 mM sodium chloride, 0.1 mM EDTA, 24 mM magnesium chloride, 1 mM DTT, 25 mM PNPP, 0.05% Triton×100, 11 μM ATP, and 0.5 μCi γ-^32P ATP in water is added and the reaction is allowed to proceed for 1 hour at room temperature. The c-Jun phosphorylation is terminated by addition of 150 μL of 12.5% trichloroacetic acid. After 30 minutes, the precipitate is harvested onto a filter plate, diluted with 50 μL of the scintillation fluid and quantified by a counter. The IC50 values are calculated as the concentration of the test compound at which the c-Jun phosphorylation is reduced to 50% of the control value.

T1 sequence (P45984 whole entry): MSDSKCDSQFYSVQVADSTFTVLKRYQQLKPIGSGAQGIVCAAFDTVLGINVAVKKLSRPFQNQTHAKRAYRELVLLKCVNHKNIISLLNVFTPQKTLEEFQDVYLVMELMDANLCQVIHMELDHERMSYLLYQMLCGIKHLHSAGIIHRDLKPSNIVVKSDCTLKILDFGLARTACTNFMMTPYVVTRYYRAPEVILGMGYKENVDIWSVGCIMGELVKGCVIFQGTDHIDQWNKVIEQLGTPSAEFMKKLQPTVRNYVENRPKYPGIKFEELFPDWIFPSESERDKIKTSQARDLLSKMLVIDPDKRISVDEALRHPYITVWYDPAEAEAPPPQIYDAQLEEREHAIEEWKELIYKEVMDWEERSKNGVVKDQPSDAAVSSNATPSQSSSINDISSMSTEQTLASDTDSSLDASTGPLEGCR

Row | SMILES | IC50
1 | NC(=O)c1ccc(Nc2nccc(-c3ccc(Cl)cc3)n2)cc1 [Compound 1, 4-{[4-(4-Chlorophenyl)pyrimidin-2-yl]amino}benzamide] | ≤ 10 µM
2 | NC(=O)c1ccc(Nc2nccc(-c3cccs3)n2)cc1 [Compound 3-2] | ≤ 1 µM
3 | NC(=O)c1ccc(Nc2nccc(-c3ccccc3)n2)cc1 [Compound 3-4] | ≤ 1 µM
4 | NC(=O)c1ccc(Nc2nccc(-c3ccc(S(=O)(=O)c4ccccn4)cc3)n2)cc1 [Compound 3-9] | ≤ 1 µM
5 | NC(=O)c1ccc(Nc2nccc(-c3ccc(SCCCN4CCOCC4)cc3)n2)cc1 [Compound 3-10] | ≤ 10 µM
6 | CN(C)CCCSc1ccc(-c2ccnc(Nc3ccc(C(N)=O)cc3)n2)cc1 [Compound 3-11] | ≤ 10 µM
7 | CN1CCN(CCCSc2ccc(-c3ccnc(Nc4ccc(C(N)=O)cc4)n3)cc2)CC1 [Compound 3-12] | ≤ 10 µM
8 | NC(=O)c1ccc(Nc2nccc(-c3ccc(S(=O)(=O)c4cccnc4)cc3)n2)cc1 [Compound 3-13] | ≤ 1 µM
9 | NC(=O)c1ccc(Nc2nccc(-c3ccc(SCCCO)cc3)n2)cc1 [Compound 3-14] | ≤ 1 µM
10 | NC(=O)c1ccc(Nc2nccc(-c3ccc(S(=O)(=O)CCCO)cc3)n2)cc1 [Compound 3-15] | ≤ 1 µM
11 | CN1CCC(S(=O)(=O)c2ccc(-c3ccnc(Nc4ccc(C(N)=O)cc4)n3)cc2)CC1 [Compound 3-16] | ≤ 10 µM
12 | CN1CCN(S(=O)(=O)c2ccc(-c3ccnc(Nc4ccc(C(N)=O)cc4)n3)cc2)CC1 [Compound 3-17] | ≤ 10 µM
13 | NC(=O)c1ccc(Nc2nccc(-c3ccc(Br)cc3)n2)cc1 [Compound 3-22] | ≤ 10 µM
14 | CCOc1ccc(-c2ccnc(Nc3ccc(C(N)=O)cc3)n2)cn1 [Compound 3-23] | ≤ 1 µM
15 | COc1ccc(-c2ccnc(Nc3ccc(C(N)=O)cc3)n2)cn1 [Compound 3-24] | ≤ 1 µM
16 | CN(C)c1ccc(-c2ccnc(Nc3ccc(C(N)=O)cc3)n2)cn1 [Compound 3-25] | ≤ 1 µM
17 | NC(=O)c1ccc(Nc2nccc(-c3ccc(N4CCCCC4)cc3)n2)cc1 [Compound 3-26] | ≤ 10 µM
18 | NC(=O)c1ccc(Nc2nccc(-c3ccc([N+](=O)[O-])cc3)n2)cc1 [Compound 3-27] | ≤ 10 µM
19 | CN(C)c1ccc(-c2ccnc(Nc3ccc(C(N)=O)cc3)n2)cc1 [Compound 3-29] | ≤ 10 µM
20 | NC(=O)c1ccc(Nc2nccc(-c3ccc(N4CCOCC4)cc3)n2)cc1 [Compound 3-30] | ≤ 10 µM

Row | SMILES | IC50
21 | NC(=O)c1ccc(Nc2nccc(-c3ccc4ccccc4c3)n2)cc1 [Compound 3-34] | ≤ 10 µM
22 | NC(=O)c1ccc(Nc2nccc(-c3ccc(-n4ccnc4)cc3)n2)cc1 [Compound 3-36] | ≤ 10 µM
23 | Cc1cnc(Nc2ccc(C(N)=O)cc2)nc1-c1ccc(Cl)cc1 [Compound 3-37] | ≤ 10 µM
24 | NC(=O)c1ccc(Nc2nccc(-c3ccc(C(=O)O)cc3)n2)cc1 [Compound 3-40] | ≤ 1 µM
25 | CN(C)C(=O)c1ccc(Nc2nccc(-c3ccc(Cl)cc3)n2)cc1 [Compound 17-2] | ≤ 10 µM
26 | CNC(=O)c1ccc(Nc2nccc(-c3ccc(Cl)cc3)n2)cc1 [Compound 17-3] | ≤ 10 µM
27 | CN(C)C(=O)c1ccc(Nc2nccc(-c3ccc(Br)cc3)n2)cc1 [Compound 17-18] | ≤ 10 µM
28 | O=C(c1ccc(Nc2nccc(-c3ccc(Cl)cc3)n2)cc1)N1CCC(O)CC1 [Compound 17-20] | ≤ 1 µM
29 | O=C(NCCCn1ccnc1)c1ccc(Nc2nccc(-c3ccc(Cl)cc3)n2)cc1 [Compound 17-21] | ≤ 1 µM
30 | CC(=O)NCCNC(=O)c1ccc(Nc2nccc(-c3ccc(Cl)cc3)n2)cc1 [Compound 17-22] | ≤ 1 µM
31 | O=C(NCCCN1CCCCC1)c1ccc(Nc2nccc(-c3ccc(Cl)cc3)n2)cc1 [Compound 17-23] | ≤ 10 µM
32 | COCCNC(=O)c1ccc(Nc2nccc(-c3ccc(Cl)cc3)n2)cc1 [Compound 17-24] | ≤ 1 µM
33 | O=C(NCCCO)c1ccc(Nc2nccc(-c3ccc(Cl)cc3)n2)cc1 [Compound 17-25] | ≤ 10 µM
34 | CC(O)CNC(=O)c1ccc(Nc2nccc(-c3ccc(Cl)cc3)n2)cc1 (stereo not shown) [Compound 17-26] | ≤ 10 µM
35 | O=C(c1ccc(Nc2nccc(-c3ccc(Cl)cc3)n2)cc1)N1CCC[C@@H]1CO [Compound 17-27] | ≤ 10 µM
36 | O=C(c1ccc(Nc2nccc(-c3ccc(Cl)cc3)n2)cc1)N1CCC(O)C1 (stereo not shown) [Compound 17-28] | ≤ 10 µM
37 | CC(=O)N1CCN(C(=O)c2ccc(Nc3nccc(-c4ccc(S(=O)(=O)c5ccncc5)cc4)n3)cc2)CC1 [Compound 17-29] | ≤ 1 µM
38 | O=C(c1ccc(Nc2nccc(-c3ccc(S(=O)(=O)c4ccncc4)cc3)n2)cc1)N1CCN(C(=O)c2ccco2)CC1 [Compound 17-30] | ≤ 1 µM
39 | CN(C)C(=O)c1ccc(Nc2nccc(-c3ccc(SCCCO)cc3)n2)cc1 [Compound 17-31] | ≤ 1 µM
40 | CC(C)NC(=O)CN1CCN(C(=O)c2ccc(Nc3nccc(-c4ccc(SCCCO)cc4)n3)cc2)CC1 [Compound 17-32] | ≤ 1 µM

Row | SMILES | IC50
41 | CC(=O)N1CCN(C(=O)c2ccc(Nc3nccc(-c4ccc(SCCCO)cc4)n3)cc2)CC1 [Compound 17-33] | ≤ 1 µM
42 | O=C(c1ccc(Nc2nccc(-c3ccc(SCCCO)cc3)n2)cc1)N1CCN(C(=O)c2ccco2)CC1 [Compound 17-34] | ≤ 1 µM
43 | CCN1CCN(C(=O)c2ccc(Nc3nccc(-c4ccc(Cl)cc4)n3)cc2)CC1 [Compound 17-35] | ≤ 10 µM
44 | CCC(=O)N1CCN(C(=O)c2ccc(Nc3nccc(-c4ccc(Cl)cc4)n3)cc2)CC1 [Compound 17-37] | ≤ 1 µM
45 | O=C(NCCCN1CCCC1=O)c1ccc(Nc2nccc(-c3ccc(Cl)cc3)n2)cc1 [Compound 17-54] | ≤ 10 µM
46 | O=C(NCCCN1CCOCC1)c1ccc(Nc2nccc(-c3ccc(Cl)cc3)n2)cc1 [Compound 17-86] | ≤ 10 µM
47 | COC(=O)CNC(=O)c1ccc(Nc2nccc(-c3ccc(Cl)cc3)n2)cc1 [Compound 17-91] | ≤ 10 µM
48 | O=C(NCCCCO)c1ccc(Nc2nccc(-c3ccc(Cl)cc3)n2)cc1 [Compound 17-106] | ≤ 10 µM
49 | O=C(NCCc1ccccn1)c1ccc(Nc2nccc(-c3ccc(Cl)cc3)n2)cc1 [Compound 17-118] | ≤ 10 µM
50 | O=C(Nc1ccc2[nH]ncc2c1)c1ccc(Nc2nccc(-c3ccc(Cl)cc3)n2)cc1 [Compound 17-119] | ≤ 10 µM
51 | O=C(Nc1nc2ccccc2[nH]1)c1ccc(Nc2nccc(-c3ccc(Cl)cc3)n2)cc1 [Compound 17-121] | ≤ 10 µM
52 | CN1CCN(C(=O)c2ccc(Nc3nccc(-c4ccc(Cl)cc4)n3)cc2)CC1 [Compound 17-127] | ≤ 1 µM
53 | O=C(c1ccc(Nc2nccc(-c3ccc(Cl)cc3)n2)cc1)N1CCN(Cc2ccc3c(c2)OCO3)CC1 [Compound 17-128] | ≤ 10 µM
54 | CC(=O)N1CCN(C(=O)c2ccc(Nc3nccc(-c4ccc(Cl)cc4)n3)cc2)CC1 [Compound 17-129] | ≤ 1 µM
55 | CCN(CC)C(=O)C1CCCN(C(=O)c2ccc(Nc3nccc(-c4ccc(Cl)cc4)n3)cc2)C1 (stereo not shown) [Compound 17-130] | ≤ 10 µM
56 | O=CN1CCN(C(=O)c2ccc(Nc3nccc(-c4ccc(Cl)cc4)n3)cc2)CC1 [Compound 17-131] | ≤ 10 µM
57 | CCCNC(=O)c1ccc(Nc2nccc(-c3ccc(Cl)cc3)n2)cc1 [Compound 17-132] | ≤ 10 µM
58 | O=C(c1ccc(Nc2nccc(-c3ccc(Cl)cc3)n2)cc1)N1CCOCC1 [Compound 17-133] | ≤ 10 µM
